# Experiments:
# Wild mustard (SINAR) = assay: Field test, weed control, post-emergence, 15 DAT (Example 1); assay type: in vivo; settings: use rate I.7 12.5 g/ha, tribenuron-methyl 10 g/ha
# Excerpt: (§1) The phenyluracils I and/or the other active ingredients according to the present invention were formulated in a suitable way, either separately or in mixture, e.g. as emulsifiable concentrates (EC), soluble concentrates (SL), suspo-emulsions (SE), suspension concentrates (SC) or water-dispersible granules (WG). The formulation(s) were suspended or emulsified in water as a distribution medium immediately prior to spraying. Afterwards, the aqueous mixture was evenly sprayed on the test plots by means of finely distributing nozzles.
# (§2) The test plots were of uniform size (typically between 14 and 37 square meters, each) and the distribution of treated and untreated plots was organized according to a randomised bloc design. Crops were sown in rows at a season which was typical for the region and the crop according to usual farm practice. Weeds were not sown but germinated according to the natural infestation.
# (§3) For pre-plant and pre-plant burn-down treatments, the plots were treated before the crop was planted, typically 7 to 28 days prior to planting. For pre-emergence treatments, the plots were treated at planting (plus or minus two days) but before emergence. For post-emergence or in-crop treatments, the plots were treated after the emergence of the weed or crop, typically 20 to 50 days after planting. […]
# Curly dock (RUMCR) = assay: as above; assay type: in vivo; settings: use rate I.7 12.5 g/ha, tribenuron-methyl 10 g/ha
# Excerpt: as §1, §2, §3
smiles,measurement,setting,value
COC(=O)c1ccccc1S(=O)(=O)NC(=O)N(C)c1nc(C)nc(OC)n1 [tribenuron-methyl],Weed control (% control) Wild mustard (SINAR) Found,Wild mustard (SINAR),100 % control
same,Weed control (% control) Curly dock (RUMCR) Found,Curly dock (RUMCR),40 % control
